Measured values as given in patent publication US12168003B2, “Selective inhibition of T follicular helper cells for treatment of autoimmune disorders” (priority 2019, dated 2024).

Tested on: eIF4E
Assay: Silencing of eIF4E in OT2 T cells by lentivirus shRNA, adoptive transfer and OVA/Alum
Type: in vivo, mouse
Experimental: HEK 293T cells were transfected with pTRIPZ plasmid expressing NS shRNA ([…] (SEQ ID NO: 5)) or eIF4E shRNA ([…] (SEQ ID NO: 6)) along with psPAX2 and pMD2.G in Lipofectamine™ 2000 and Opti-MEM®. Supernatant was collected 48 hours later and centrifuged at 3000×g for 15 minutes at room temperature. Cell debris pellet was discarded and supernatant was incubated with PEG-it™ (System Biosciences) at 4° C. for 24 to 48 hours and then centrifuged for 1500×g for 30 minutes at 4° C. Supernatant was discarded and viral pellet was resuspended in cold PBS and frozen at −80° C. until use.
CD4^+ T cells were isolated (EasySep™ CD4^+ T cell isolation; StemCell) from OT2 mice (>95% Vβ5.1/5.2) using negative selection. OT2 T cells were activated in mouse T cell media (RPMI containing 10% FBS, 55 μM 2-ME, 25 mM HEPES, 100 uM Sodium pyruvate, 2 mM Glutamax, non-essential amino acids, 100 U/mL penicillin, and 100 μg/mL streptomycin) and soluble 1 μg/mL anti-CD28 with 50 U/mL IL-2 on plates coated with 10 μg/mL anti-CD3 for 3 days. Following activation, cells were spin-transfected at 3×10^6 cells in 1 mL in 6-well plates with lentivirus and 4 μg/mL dextran (Sigma D9885) at 2,000×g for 60 minutes at 30° C. with no acceleration or break (Kurachi et al., “Optimized Retroviral Transduction of Mouse T Cells for in Vivo Assessment of Gene Function,” Nat. Protoc. 12(9):1980-1998 (2017), which is hereby incorporated by reference in its entirety). Following spinoculation, cells were centrifuged and supernatant was decanted and replaced with fresh media. The next day (day 5) 2 μg/mL puromycin (Gibco) and PMA/ionomycin (BioLegend®) are added to the T cells and incubated for 3 days. On day 8, media was replaced and cells were incubated with PMA/ionomycin again for another 3 days. On day 10, it was confirmed that control cells not transfected with virus were >98% dead and 1.5×10^6 OT2 NS or OT2 eIF4Esh were transferred i.p. to CD45.1 mice. One day following adoptive transfer, mice were placed on doxycycline diet (200 mg/kg) and remained on this diet for the entire study. […]

GCGTCAAGCAATCGAGATTTG (SEQ ID NO: 6) (expressed or natural sequence) [eIF4E shRNA, doxycycline-inducible eIF4E shRNA expressed from pTRIPZ lentivirus in OT2 T cells]
eIF4E silencing in spleen and blood transduced OT2 T cells (lower eIF4E level) (Dox-inducible shRNA, seven days following Dox addition, vs NS shRNA): 3 fold | fewer TFH cells formed by OT2 T cells (day 15 post-transfer, OVA/Alum, vs control NS OT2 cells): 3 fold | level of OT2 T cells in the spleen (day 15 post-transfer, vs NS OT2 cells): no impact
